System: M2 of influenza viruses A (H1N1)
Conditions: almost all the ORVs

NC12CC3CC(CC(C3)C1)C2 [amantadine]
susceptibility by M2 sequencing (in words): sensitive
